# Results reported in patent publication US20260158149A1, “GLYCOSYLATED PRODRUGS” (UNIVERSITEIT LEIDEN, priority 2021, published 2026).
# Legend:
# [1] = test system: il1b, il6, mmp9, mmp13, il8 mRNA; test: qPCR of pro-inflammatory genes after tail wounding; assay type: in vivo, Zebrafish (Danio rerio)
# Source text: (§1) For the tail fin amputation experiments, 3 days post fertilization (dpf) larvae from the Tg(mpx:GFP^i114/mpeg1:mCherry^umsF001) line were anesthetized in 0.02% buffered aminobenzoic acid ethyl ester (tricaine) in egg water and placed on a 2% agarose-coated petri dish. The tails were partially amputated with a 1 mm sapphire blade (World Precision Instruments) under a Leica M165C stereomicroscope (Leica Microsystems, Wetzlar, Germany). Chemical treatment (or 0.1% DMSO as vehicle treatment) was started at 2 h before the amputation (pretreatment) and was continued for 4 h after the tail fin amputation (20 larvae per group, unless indicated otherwise), at which time point the larvae were fixed in 4% paraformaldehyde (PFA) overnight at 4° C. and stored at 4° C. until further examination. In some experiments, a 24 h treatment with miglustat, ME656 or MZ31 was started at 2 dpf, and these treatments were continued during the pretreatment and treatment with the other chemicals. For imaging of larvae from the Tg(mpx:GFP^i114/mpeg1:mCherry^umsF001) line, a LeicaMZ16FA fluorescence stereomicroscope with LAS 3.7 software was used. Neutrophils were detected by GFP fluorescence and macrophages by mCherry fluorescence. The neutrophil numbers were determined by blinded manual counting in a pre-determined area. When larvae from gba2^−/− or gr^s357mutant lines were used, neutrophil labeling was performed with the TSA fluorescein detection kit (PerkinElmer) for specific staining of Myeloperoxidase (Mpx)-positive cells, following the manufacturer's instructions.
# (§2) For experiments in zebrafish, gene expression was measured using 3 dpf embryos. Groups of 15 larvae were collected in TRIzol reagent (Invitrogen) and mRNA was isolated using the miRNeasy mini kit (Qiagen), according to the manufacturer's instructions. For experiments in HeLa cells, samples were collected from a single well from 6 well plates (80% confluent) in TRIzol reagent and mRNA was isolated using the RNeasy mini kit. Zebrafish and cells samples were treated with DNAse utilizing the DNA-Free™ kit (Ambion). The cDNA synthesis was performed using iScript cDNA synthesis kit (Bio-Rad) using 1 μg of RNA per sample. For qPCR, 10 μM of forward and 10 μM of reverse primer, 12.5 μL of iQ SYBR Green Supermix (Bio-Rad), and 2 μL of cDNA were added to the qPCR reaction mixture. […] The qPCR reactions were performed on a MyiQ-single-color real-time PCR detection system (Bio-Rad) with initial denaturation for 3 min at 95° C. and 40 cycles of 15 s at 95.5° C., 15 s at 60° C., and 30 s at 72° C. Cycle threshold values (Ct values, i.e. the cycle numbers at which a threshold value of the fluorescence intensity was reached) were determined for each sample. The gene expression level for each sample was normalized using the expression of ppial (peptidylprolyl isomerase Ab (cyclophilin A)) for zebrafish samples, and 18S rRNA for human cells. The fold change per sample (compared to the respective control group) was calculated using the ΔΔCt method.
# Gr = test: Transactivation activity of Gr in Tg(9xGCRE-HSV.UI23:EGFP) reporter line; assay type: in vivo, Zebrafish (Danio rerio); settings: 24 h treatment, 3 dpf larvae
# Procedure: The Tg(9xGCRE-HSV.UI23:EGFP)^ia20 zebrafish reporter line expresses enhanced green fluorescent protein (EGFP) under the control of a promoter containing an array of nine GREs. To study the effect of chemical treatments on the transactivation activity of the Gr, 15 zebrafish embryos per group (2 dpf) were treated with the indicated compounds for 24 hours. The transactivation activity of Gr induced by the treatments was assessed using a LeicaMZ16FA fluorescence stereomicroscope supported by LAS 3.7 software. The integrated intensity of the EGFP signal in the larvae was determined using ImageJ software.
# [2] = zebrafish, in vivo
# Procedure: Zebrafish embryos at 2 hpf received a chemical treatment, as indicated, with daily refreshment of the solutions, until 96 hpf. Then, the treatments were stopped and embryos were incubated in egg water until 5 dpf to avoid cross-reactivity with the compounds of the cortisol antibody used in the ELISA. Then, the treatments were stopped and replaced with egg water. At 5 dpf, the larvae were collected in an Eppendorf tube and 100 μL of ice-cold phosphate-buffered saline (PBS) was added. The larvae were homogenized using a BulletBlender® for 3 min at 8,000 rpm. Ethyl acetate was added to the homogenate and the supernatant was gathered and vaporized. A volume of 150 μl of 0.2% Bovine serum albumin (Sigma Aldrich) dissolved in phosphate-buffered saline (PBS) was added to the samples and frozen. Whole-body cortisol of the zebrafish larvae was determined by ELISA (Demeditec Diagnostics GmbH, Kiel-Wellsee, Germany), following the manufacturer's instructions. In each experiment, three biological replicates were used for each treatment group, and the colorimetric assay was performed using technical duplicates.
# [3] = test system: Gr target genes fkbp5, pck1 and nfkbiaa; test: qPCR of Gr target genes fkbp5, pck1, nfkbiaa; assay type: in vivo, Zebrafish (Danio rerio)
# Procedure: as §2
# [4] = zebrafish, in vivo; remark: listed apart in the source
# Procedure: Zebrafish embryos at 2 hpf received a chemical treatment, as indicated, with daily refreshment of the solutions, until 5 dpf. At 5 dpf, the larvae were collected in an Eppendorf tube and 100 μL of ice-cold glucose buffer was added to each sample. The larvae were homogenized using a BulletBlender® for 3 min at 8,000 rpm. The homogenates were then centrifuged at 4° C. for 8 min at 11000 rpm and the supernatant was stored at −20° C. Whole-body glucose concentrations were determined using a Glucose Colorimetric Assay kit (Cayman Chemical, USA), according to the manufacturer's instructions. In each experiment, three biological replicates were used for each treatment group, and the colorimetric assay was performed using technical duplicates.
# [5] = test system: neutrophils migrated to the wounded area; test: Tail fin amputation assay: neutrophil migration to the wounded area; assay type: in vivo, Zebrafish (Danio rerio)
# Procedure: Zebrafish (Danio rerio) were maintained and handled according to the guidelines from the Zebrafish Model Organism Database (https://zfin.org/) and in compliance with the directives of the local animal welfare committee of Leiden University. To maintain circadian rhythmicity, adult fish were exposed to a 14 h light and 10 h dark cycle. Fertilization was performed by natural spawning at the beginning of the light period. Fertilized eggs were collected and raised at 28° C. in egg water (60 μg/ml Instant Ocean sea salts and 0.0025% methylene blue). The following zebrafish lines were used in this study: AB/TL wild type, the transgenic lines Tg(mpx:GFP^i114/mpeg1:mCherry^umsF001) (Bernut et al., (2014). Mycobacterium abscessus cording prevents phagocytosis and promotes abscess formation. Proc Natl Acad Sci USA 111, E943-952; Renshaw et al., (2006). A transgenic zebrafish model of neutrophilic inflammation. Blood 108, 3976-3978), and Tg(9xGCRE-HSV.UI123:EGFP)^ia20 (Benato et al., (2014). A living biosensor model to dynamically trace glucocorticoid transcriptional activity during development and adult life in zebrafish. Mol Cell Endocrinol 392, 60-72), and the mutant lines gba2^−/− (Lelieveld et al., (2019). Role of beta-glucosidase 2 in aberrant glycosphingolipid metabolism: model of glucocerebrosidase deficiency in zebrafish. J Lipid Res 60, 1851-1867) and gr^s357 (Ziv et al., (2013). An affective disorder in zebrafish with mutation of the glucocorticoid receptor. Mol Psychiatry 18, 681-691).
# as §1
# human GR = biological target: T1, human GR (Homo sapiens, UniProt P04150); test: PolarScreen Glucocorticoid Receptor Competitor Assay; settings: glucosylation or gentiobiosylation of Pdn
# T1 sequence (P04150 1-777): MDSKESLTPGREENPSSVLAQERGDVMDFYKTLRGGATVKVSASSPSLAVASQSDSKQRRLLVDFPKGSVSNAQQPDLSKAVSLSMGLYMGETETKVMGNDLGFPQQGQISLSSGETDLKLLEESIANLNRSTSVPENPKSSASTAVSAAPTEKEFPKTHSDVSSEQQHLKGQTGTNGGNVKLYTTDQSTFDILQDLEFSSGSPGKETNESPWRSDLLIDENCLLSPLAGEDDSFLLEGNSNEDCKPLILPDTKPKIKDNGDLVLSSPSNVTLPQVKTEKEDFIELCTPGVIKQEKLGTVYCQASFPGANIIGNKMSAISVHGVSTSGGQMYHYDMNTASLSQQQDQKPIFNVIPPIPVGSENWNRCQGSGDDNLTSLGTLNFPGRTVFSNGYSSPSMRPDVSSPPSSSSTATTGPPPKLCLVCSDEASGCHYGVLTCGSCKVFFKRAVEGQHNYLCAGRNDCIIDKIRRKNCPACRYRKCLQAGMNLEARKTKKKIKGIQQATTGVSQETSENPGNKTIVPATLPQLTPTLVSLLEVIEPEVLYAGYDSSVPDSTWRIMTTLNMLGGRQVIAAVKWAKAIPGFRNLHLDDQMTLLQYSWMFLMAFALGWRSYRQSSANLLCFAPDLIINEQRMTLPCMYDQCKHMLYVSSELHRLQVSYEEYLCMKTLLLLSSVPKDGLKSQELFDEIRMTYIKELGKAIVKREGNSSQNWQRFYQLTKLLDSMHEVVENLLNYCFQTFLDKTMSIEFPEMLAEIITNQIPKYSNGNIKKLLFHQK
compound,measurement,setting,value
"C[C@]12C=CC(=O)C=C1CC[C@@H]1[C@@H]2[C@@H](O)C[C@@]2(C)[C@H]1CC[C@]2(O)C(=O)CO[C@@H]1O[C@H](CO)[C@@H](O)[C@H](O)[C@H]1O [GPdn, 21-O-Glucose-Prednisolone]","expression of the pro-inflammatory genes il1b, il6 and il8",[1],these effects were similar to those observed upon Pdn and GPdn treatment
same,transactivation activity of Gr (GFP signal in GRE:GFP reporter fish line),Gr,neither GPdn nor GbPdn induced the transactivation activity of the Gr
same,whole body cortisol level,[2],only slightly reduced the cortisol concentrations
same,whole body cortisol level under wounding conditions with MZ31,[2],reduced upon treatment with MZ31
same,"expression of Gr target genes fkbp5, pck1 and nfkbiaa",[3],lack of effect
same,whole body glucose level,[4],did not increase the glucose level
same,whole body glucose level under wounding conditions with MZ31,[4],reduced upon treatment with MZ31
same,reduction in neutrophil migration in the presence of MZ31,[5]; GBA2 inhibitor MZ31,independent of GBA2 activity
same,migration of neutrophils towards the wounded area,"[5]; wild type larvae, 4 h after tail wounding",inhibited the neutrophil migration
same,decrease in the binding affinity relative to Pdn,human GR,~30 fold
